Consider nine compounds from paper PMC3685885 (Toxicology and applied pharmacology, 2013).

Where “and” joins values, the source holds several entries; their conditions need not be identical. Equal values may be shown once. Read-outs that look alike come from different tables or passages of the source. Bounds are passed on as bounds.

The target in assay [1] is T1, human CB2Rs (Homo sapiens, UniProt P34972). Put plainly: [35S]GTPγS binding. The note with it: CHO-hCB2 membranes; for Intrinsic activity at CB2Rs, G-protein activation: agonists at 10 µM compared to CP-55,940; for CB2R Efficacy (EMAX) G-protein Activation: 10 µM, [35S]GTPγS binding, mean ± SEM. The format is biochemical. For orientation: Binding of GTPγS marks nucleotide exchange on a G protein.

For assay [2], the target named is T1, human CB2Rs. Kind of assay: [3H]CP-55,940 competition receptor binding in CHO-hCB2 membranes.
Assay [3] addresses T1, human CB2Rs. Put plainly: Inhibition of forskolin-stimulated adenylyl cyclase. The note with it: for CB2R Efficacy (EMAX) AC-Inhibition: 10 µM; for Potency to regulate AC-activity relative to the parent compound: IC50 metabolite versus parent; for FRO for 50% AC-Inhibition: fractional CB2R occupancy at AC-IC50, FRO = [DRUG] / (Ki + [DRUG]); for Intrinsic activity at CB2Rs, AC-inhibition: 10 µM compared to CP-55,940. The format is cell-based.

Assay [4] has as its target human mu-opioid receptors (Homo sapiens, UniProt P35372). Kind of assay: [35S]GTPγS binding. The note with it: 10 µM, membranes not expressing hCB2Rs. The format is biochemical.
Where [5] appears, read: read-out: CB2R Affinity (Ki), [3H]CP-55,940 0.2 nM, CHO-hCB2 membranes, mean ± SEM.
Where [6] appears, read: intact CHO-hCB2 cells, mean ± SEM.
[7] abbreviates: read-out: Potency for AC-Inhibition (IC50), intact CHO-hCB2 cells, 30 µM forskolin, mean ± SEM.

T1 sequence (P34972 whole entry): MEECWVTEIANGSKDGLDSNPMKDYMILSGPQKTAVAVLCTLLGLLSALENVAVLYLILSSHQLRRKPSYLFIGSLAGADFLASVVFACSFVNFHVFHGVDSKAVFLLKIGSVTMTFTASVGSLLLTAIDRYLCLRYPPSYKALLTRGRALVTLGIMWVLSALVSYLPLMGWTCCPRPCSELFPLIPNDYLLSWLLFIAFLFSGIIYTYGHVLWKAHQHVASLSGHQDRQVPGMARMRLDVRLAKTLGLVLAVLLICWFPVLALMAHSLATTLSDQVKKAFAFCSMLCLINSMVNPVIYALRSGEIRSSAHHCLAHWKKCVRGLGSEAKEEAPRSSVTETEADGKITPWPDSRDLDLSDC
Chain of human mu-opioid receptors (P35372 whole entry): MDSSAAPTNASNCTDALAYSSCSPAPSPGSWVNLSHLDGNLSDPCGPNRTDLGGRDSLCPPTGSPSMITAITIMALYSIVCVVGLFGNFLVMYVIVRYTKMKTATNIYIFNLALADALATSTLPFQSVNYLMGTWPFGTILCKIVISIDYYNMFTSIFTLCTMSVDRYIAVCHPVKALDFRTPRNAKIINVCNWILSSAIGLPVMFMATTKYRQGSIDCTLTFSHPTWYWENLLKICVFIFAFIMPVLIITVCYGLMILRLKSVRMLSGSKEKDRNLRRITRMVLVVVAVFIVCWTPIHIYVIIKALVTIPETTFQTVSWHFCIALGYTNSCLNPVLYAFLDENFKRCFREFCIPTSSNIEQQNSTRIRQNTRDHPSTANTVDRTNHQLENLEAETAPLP

As for `COc1ccc(C(=O)c2c(C)n(CCN3CCOCC3)c3cc(I)ccc23)cc1` [AM-630, reference compound], the “Intrinsic activity at CB2Rs, G-protein activation” value in assay [1] is listed as “acted as inverse agonists”.

On to `O=C(O)CCCn1cc(C(=O)c2cccc3ccccc23)c2ccccc21` [JWH-073-M6], for which, in assay [2] (CHO-hCB2 membranes), the “CB2R affinity” value is “lack affinity for CB2Rs”. The Ki in assay [2] (setting [5]) was above 10000 nM.

As for SR-144528 [reference compound], in assay [1], the “Intrinsic activity at CB2Rs, G-protein activation” value was “acted as inverse agonists”.

As for `O=C(c1cccc2ccccc12)c1cn(CCCCO)c2ccccc12` [JWH-073-M5], in assay [2] (setting [5]), the Ki was 96 ± 7.1 nM. Also, the “CB2R Efficacy (EMAX) G-protein Activation” value in assay [1] is 31.0 ± 1.0 (3) fmole/mg. Further, the “CB2R Efficacy (EMAX) AC-Inhibition” value in assay [3] (setting [6]) is reported as 54.2 ± 5.9 (4) % Inhibition. For the same compound, in assay [3], the “Potency to regulate AC-activity relative to the parent compound” value was “equipotent”; the “FRO for 50% AC-Inhibition” value was 12.1% and 12.1 ± 1.6 (3) %. For the same compound, in assay [3] (setting [7]), the IC50 was 13.3 ± 2 nM.

Consider `CCCCn1cc(C(=O)c2cccc3ccccc23)c2ccccc21` [JWH-073, 1-butyl-3-(1-naphthoyl)indole], for which the “CB2R Efficacy (EMAX) G-protein Activation” value in assay [1] is 40.1 ± 4.2 (3) fmole/mg. For the same compound, the “Effect on G-protein activity in CHO-hMOR membranes” value in assay [4] is given as “failed to significantly alter G-protein activity”. In addition, in assay [3], the half-inhibitory concentration (IC50) was determined as 16.9 ± 1.9 nM; the “FRO for 50% AC-Inhibition” value is 62.5% and 62.5 ± 3.0 (5) %. The “CB2R Efficacy (EMAX) AC-Inhibition” value in assay [3] (setting [6]) is reported as 62.6 ± 2.7 (3) % Inhibition. In addition, in assay [3] (intact CHO-hCB2 cells), the “Intrinsic activity at CB2Rs, AC-inhibition” value is given as “full agonists”.

For `CCCCCOc1c(OC)ccc2cc(C(=O)NCc3ccc4c(c3)OCO4)c(=O)[nH]c12` [JTE-907, reference compound], the “Intrinsic activity at CB2Rs, G-protein activation” value in assay [1] is “acted as inverse agonists”.

In turn, `CCCCCn1cc(C(=O)c2cccc3ccccc23)c2ccccc21` [JWH-018, 1-pentyl-3-(1-naphthoyl)indole] registered a Ki in assay [2] of 5.6 ± 2.4 nM. Also, the “CB2R Efficacy (EMAX) G-protein Activation” value in assay [1] is 60.3 ± 11.4 (7) fmole/mg. In addition, in assay [4], the “Effect on G-protein activity in CHO-hMOR membranes” value is recorded as “failed to significantly alter G-protein activity”. In assay [3], this compound showed an IC50 of 3.6 ± 2.2 nM. Further, in assay [3] (setting [6]), the “CB2R Efficacy (EMAX) AC-Inhibition” value is reported as 59.3 ± 4.0 (4) % Inhibition.

With `O=C(O)CCCCn1cc(C(=O)c2cccc3ccccc23)c2ccccc21` [JWH-018-M6], the “CB2R affinity” value in assay [2] (CHO-hCB2 membranes) is “lack affinity for CB2Rs”. For the same compound, the Ki in assay [2] (setting [5]) is above 10000 nM.

`O=C(c1cccc2ccccc12)c1cn(CCCCCO)c2ccccc12` [JWH-018-M5]: the Ki in assay [2] (setting [5]) came to 47.4 ± 10.1 nM. The “CB2R Efficacy (EMAX) G-protein Activation” value in assay [1] is 38.4 ± 8.5 (5) fmole/mg. Also, in assay [3] (setting [6]), the “CB2R Efficacy (EMAX) AC-Inhibition” value was 53.5 ± 4.6 (4) % Inhibition. Besides, the “Potency to regulate AC-activity relative to the parent compound” value in assay [3] is listed as around 5 fold. Further, the “Intrinsic activity at CB2Rs, AC-inhibition” value in assay [3] (intact CHO-hCB2 cells) is reported as “partial CB2R agonists”. Also, the IC50 in assay [3] (setting [7]) was 17.7 ± 5.5 nM.

As usually defined, the Ki is the equilibrium dissociation constant of an inhibitor or competing ligand from its target. By IC50 is commonly meant the point on the concentration scale where inhibition reaches its midpoint.
